{"source": "patent US11052154B2", "about": "“Ras protein degradation inducing molecule and pharmaceutical composition” (Tokyo University of Science Foundation, priority 2016, dated 2021)", "key": {"HeLa cells": {"test_system": "HeLa cells", "test": "Apoptosis induction in HeLa cells, FACS analysis (Annexin V/PI)", "format": "cell-based, human", "settings": "HeLa cells expressing wild-type K-Ras, 24 hours after addition; FIGS. 6A, 7A", "procedure": "In Example 7, apoptosis induction in a case where TUS-007, Ras-SOS, or Ras-SOS-NH2 was added to HeLa cells or SW1990 cells (human pancreatic cancer cells) had been added was evaluated by the FACS analysis. It is noted that in HeLa cells, the wild-type K-Ras protein (K-Ras-WT) is expressed, and in SW1990 cells, the G12D mutant K-Ras protein (K-Ras-G12D) is expressed.\nHeLa cells or SW1990 cells were seeded in a 24-well plate at a cell density of 8×10^4 cells/well, and then cultured under conditions of 37° C. and 5 vol % CO2 for 16 hours.\nAfter 16 hours from cell seeding, TUS-007, Ras-SOS, or Ras-SOS-NH2 were added to HeLa cells or SW1990 cells as follows. As a medium, a serum-free medium (37° C.) in which 1 mass % L-glutamine solution (Sigma-Aldrich) was added to D-MEM (high D-glucose, phenol red, sodium pyruvate (Wako Pure Chemical Industries, Ltd.)) was used. It is noted that the L-glutamine solution was added immediately before use. A DMSO solution containing TUS-007, Ras-SOS, or Ras-SOS-NH2 was mixed with the medium so that the concentration of DMSO was 1 vol %, and added to each well at 500 μL/well, and cultured under conditions of 37° C. and 5 vol % CO2. As a control, DMSO was used.\nThe medium was removed 24 hours after addition of TUS-007, Ras-SOS, or Ras-SOS-NH2, and then PBS was added to wash the cells. After removing PBS, trypsin (0.25 w/v % trypsin-1 mmol/L EDTA⋅4 Na solution with phenol red) (Wako Pure Chemical Industries, Ltd.) at 37° C. was added to each well at 200 μL/well, and cultured under conditions of 37° C. and 5 vol % CO2 for 1 minute. […]\nA BD FACSCanto™ II (BD Biosciences) was used for flow cytometry. […] The proportion of Annexin V-positive and PI-negative cells was calculated using an analysis software FlowJo™ (TOMY Digital Biology Co., Ltd.), and the proportion was defined as a proportion of apoptosis cells.\nIn Example 8, apoptosis induction in a case where TUS-007, Ras-SOS-NH2, or erlotinib as an anticancer agent (EGFR inhibitor) was added to HeLa cells or SW1990 cells was evaluated by FACS analysis as in Example 7."}, "[1]": {"test": "Acute toxicity, single oral dose in Jcl:ICR mice", "format": "in vivo, mouse", "procedure": "Acute toxicity when TUS-007 was orally administered to Jcl:ICR mice (8 weeks old, female) (CLEA Japan, Inc.) in a single dose of 80 mg/kg body weight, 300 mg/kg body weight, or 1000 mg/kg body weight was evaluated."}}}
{"smiles": "CCC(C)[C@H](NC(=O)CCCCCCNC(=O)[C@H](CC(C)C)NC(=O)CNC(=O)c1cc(Cl)ccc1Cl)C(=O)Nc1ccc2[nH]c(Cc3c[nH]c4ccccc34)nc2c1", "note": "(stereo in doubt) [TUS-007]", "values": [{"measurement": "apoptosis induction (proportion of Annexin V-positive and PI-negative cells)", "setting": "HeLa cells", "result": "apoptosis was induced in a concentration-dependent manner"}, {"measurement": "LD50", "setting": "[1]; single oral dose", "result": "> 1000", "unit": "mg/kg body weight"}, {"measurement": "general condition of the mice (acute toxicity)", "setting": "[1]; single oral dose of 80, 300 or 1000 mg/kg body weight", "result": "no abnormality in the general condition of the mice"}]}
